We go through 37 compounds from patent publication US20110118262A1, “Pyrrolidinyl and Piperidinyl Compounds Useful as NHE-1 Inhibitiors” (BOEHRINGER INGELHEIM INTERNATIONAL GMBH, priority 2008, published 2011).

The test deals with T1, NHE-1 (Homo sapiens, UniProt P19634).
T1 construct: endogenous in cells; host or cells: HT-29
In words: Evaluation of NHE-1 Inhibition (pHi) in HT-29 cells. The following applies: BCECF dye, 50% inhibition of the intracellular pH recovery, read-out: NHE1 HT29 pHi IC50. In kind it is cell-based. The procedure, abridged:
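Intracellular pH measured with BCECF in HT-29 cells after 24 h culture. Cells dye-loaded 30 min at 37° C, then acid-loaded with NH4Cl-containing choline buffer (pH 7.5) for 30 min at RT. Compounds added on an FDSS6000 fluorescence reader.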

Molecules are shown by their SMILES.

T1 sequence (P19634 whole entry): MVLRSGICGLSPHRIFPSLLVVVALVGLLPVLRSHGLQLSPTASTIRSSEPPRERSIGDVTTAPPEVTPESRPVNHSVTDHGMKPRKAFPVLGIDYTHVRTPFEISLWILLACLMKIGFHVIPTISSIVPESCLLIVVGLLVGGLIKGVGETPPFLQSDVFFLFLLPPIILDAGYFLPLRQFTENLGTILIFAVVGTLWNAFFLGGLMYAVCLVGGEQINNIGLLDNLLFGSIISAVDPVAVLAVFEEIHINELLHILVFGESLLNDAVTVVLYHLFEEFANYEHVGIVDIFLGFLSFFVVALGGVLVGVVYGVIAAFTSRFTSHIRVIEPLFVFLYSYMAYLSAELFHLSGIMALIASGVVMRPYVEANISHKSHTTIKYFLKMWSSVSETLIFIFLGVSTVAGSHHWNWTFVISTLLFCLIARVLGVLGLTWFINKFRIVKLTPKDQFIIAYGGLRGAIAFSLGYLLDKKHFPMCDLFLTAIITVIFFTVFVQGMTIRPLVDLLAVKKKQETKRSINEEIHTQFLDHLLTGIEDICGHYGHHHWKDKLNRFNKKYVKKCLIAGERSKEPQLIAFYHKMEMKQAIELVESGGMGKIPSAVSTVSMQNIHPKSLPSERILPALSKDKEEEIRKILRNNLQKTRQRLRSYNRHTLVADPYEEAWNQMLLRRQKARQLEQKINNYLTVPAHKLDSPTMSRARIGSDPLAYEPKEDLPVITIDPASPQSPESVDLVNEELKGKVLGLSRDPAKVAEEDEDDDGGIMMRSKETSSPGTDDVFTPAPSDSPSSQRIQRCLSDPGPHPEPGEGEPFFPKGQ

For the compound `COCc1ccc(C(=O)N2CCC(c3ccc(C(=O)NC(=N)N)cc3C(F)(F)F)CC2)cc1` [N-{4-[1-(4-Methoxymethyl-benzoyl)-piperidin-4-yl]-3-trifluoromethyl-benzoyl}-guanidine], the concentration for half-maximal inhibition (IC50) amounted to 122 nM. In the case of `N=C(N)NC(=O)c1ccc(C2CCN(C(=O)c3ccc(-n4ccnc4)nc3)CC2)c(C(F)(F)F)c1` [N-{4-[1-(6-Imidazol-1-yl-pyridine-3-carbonyl)-piperidin-4-yl]-3-trifluoromethyl-benzoyl}-guanidine] it was 14 nM.

As to `N=C(N)NC(=O)c1ccc(C2CCN(C(=O)c3ccncc3)CC2)c(C(F)(F)F)c1` [N-{4-[1-(Pyridine-4-carbonyl)-piperidin-4-yl]-3-trifluoromethyl-benzoyl}-guanidine], the 50% inhibitory concentration (IC50) was found to be 9 nM. In the case of `N=C(N)NC(=O)c1ccc(C2CCN(C(=O)c3ccc(C(F)(F)F)cc3)CC2)c(C(F)(F)F)c1` [N-{3-Triuoromethyl-4-[1-(4-trifluoromethyl-benzoyl)-piperidin-4-yl]-benzoyl}-guanidine] it was 337 nM; in that of `N=C(N)NC(=O)c1ccc(C2CCN(C(=O)C3CC3)CC2)c(C(F)(F)F)c1` [N-[4-(1-Cyclopropanecarbonyl-piperidin-4-yl)-3-trifluoromethyl-benzoyl]-guanidine], 16 nM. Next, `N=C(N)NC(=O)c1ccc(C2CCN(C(=O)c3ccc(F)cc3)CC2)c(C(F)(F)F)c1` [N-{4-[1-(4-Fluoro-benzoyl)-piperidin-4-yl]-3-trifluoromethyl-benzoyl}-guanidine]: 110 nM; `CS(=O)(=O)c1cc(C(=O)NC(=N)N)ccc1C1CCN(C(=O)c2cccc(C#N)c2)CC1` [N-{4-[1-(3-cyano-benzoyl)-piperidin-4-yl]-3-methanesulfonyl-benzoyl}-guanidine]: 34 nM; `Cn1cnc(C[C@H](N)C(=O)N2CCC(c3ccc(C(=O)NC(=N)N)cc3C(F)(F)F)CC2)c1` [(S)-N-(4-{1-[2-Amino-3-(1-methyl-1H-imidazol-4-yl)-propionyl]-piperidin-4-yl}-3-trifluoromethyl-benzoyl)-guanidine]: 49 nM.

For the compound `N=C(N)NC(=O)c1ccc([C@@H]2CCN(C(=O)c3ccc(F)cc3)C2)c(C(F)(F)F)c1` [(S)-N-{4-[-1-(4-fluoro-benzoyl)-pyrrolidin-3-yl]-3-trifluoromethyl-benzoyl}-guanidine], the IC50 was 18 nM. As for `CCC(=O)N1CCC(c2ccc(C(=O)NC(=N)N)cc2S(C)(=O)=O)CC1` [N-{3-methanesulfonyl-4-[1-propionyl-piperidin-4-yl]-benzoyl}-guanidine], the 50% inhibitory concentration (IC50) came to 21 nM. As to `CCCC(=O)N1CCC(c2ccc(C(=O)NC(=N)N)cc2C(F)(F)F)CC1` [N-[4-(1-Butyryl-piperidin-4-yl)-3-trifluoromethyl-benzoyl]-guanidine], the IC50 was 30 nM. In the case of `N=C(N)NC(=O)c1ccc(C2CCN(C(=O)c3ccccc3F)CC2)c(C(F)(F)F)c1` [N-{4-[1-(2-Fluoro-benzoyl)-piperidin-4-yl]-3-trifluoromethyl-benzoyl}-guanidine] it was 125 nM; in that of `CC(=O)N1CCC(c2cc(C)c(C(=O)NC(=N)N)cc2C(F)(F)F)CC1` [N-[4-(1-Acetyl-piperidin-4-yl)-2-methyl-5-trifluoromethyl-benzoyl]-guanidine], 9 nM. Next, `COc1cc(C2CCN(C(=O)c3ccn[nH]3)CC2)c(C(F)(F)F)cc1C(=O)NC(=N)N` [N-{2-Methoxy-4-[1-(2H-pyrazole-3-carbonyl)-piperidin-4-yl]-5-trifluoromethyl-benzoyl}-guanidine]: 6 nM; `CNS(=O)(=O)c1ccc(C(=O)N2CCC(c3ccc(C(=O)NC(=N)N)cc3C(F)(F)F)CC2)cc1` [4-[4-(4-Guanidinocarbonyl-2-trifluoromethyl-phenyl)-piperidine-1-carbonyl]-N-methyl-benzenesulfonamide]: 51 nM; `N=C(N)NC(=O)c1ccc(C2CCN(C(=O)c3ccc(O)cc3)CC2)c(C(F)(F)F)c1` [N-{4-[1-(4-Hydroxy-benzoyl)-piperidin-4-yl]-3-trifluoromethyl-benzoyl}-guanidine]: 25 nM. Next, `N=C(N)NC(=O)c1ccc(C2CCN(C(=O)c3cncc(-c4ccccc4)c3)CC2)c(C(F)(F)F)c1` [N-{4-[1-(5-Phenyl-pyridine-3-carbonyl)-piperidin-4-yl]-3-trifluoromethyl-benzoyl}-guanidine]: 204 nM. With `N=C(N)NC(=O)c1ccc(C2CCN(C(=O)c3ccc4c(c3)OCCO4)CC2)c(C(F)(F)F)c1` [N-{4-[1-(2,3-Dihydro-benzo[1,4]dioxine-6-carbonyl)-piperidin-4-yl]-3-trifluoromethyl-benzoyl}-guanidine], the concentration for half-maximal inhibition (IC50) was determined as 130 nM. Next, `N=C(N)NC(=O)c1ccc(C2CCN(C(=O)c3cccc(-c4cccnc4)c3)CC2)c(C(F)(F)F)c1` [N-{4-[1-(3-Pyridin-3-yl-benzoyl)-piperidin-4-yl]-3-trifluoromethyl-benzoyl}-guanidine]: 140 nM; `CS(=O)(=O)c1ccccc1C(=O)N1CC=C(c2ccc(C(=O)NC(=N)N)cc2C(F)(F)F)CC1` [N-{4-[1-(2-Methanesulfonyl-benzoyl)-1,2,3,6-tetrahydro-pyridin-4-yl]-3-trifluoromethyl-benzoyl}-guanidine]: 73 nM.

For the compound `N=C(N)NC(=O)c1ccc(C2CCN(C(=O)c3cccc(C(F)(F)F)c3)CC2)c(C(F)(F)F)c1` [N-{3-Trifluoromethyl-4-[1-(3-trifluoromethyl-benzoyl)-piperidin-4-yl]-benzoyl}-guanidine], the 50% inhibitory concentration (IC50) was found to be 250 nM. In the case of `CS(=O)(=O)c1ccc(Oc2ccc(C(=O)N3CCC(c4ccc(C(=O)NC(=N)N)cc4C(F)(F)F)CC3)cn2)cc1` [N-(4-{1-[6-(4-Methanesulfonyl-phenoxy)-pyridine-3-carbonyl]-piperidin-4-yl}-3-trifluoromethyl-benzoyl)-guanidine] it was 54 nM; in that of `N=C(N)NC(=O)c1ccc(C2CCN(C(=O)c3cncc(-c4ccc(F)cc4)c3)CC2)c(C(F)(F)F)c1` [N-(4-{1-[5-(4-Fluoro-phenyl)-pyridine-3-carbonyl]-piperidin-4-yl}-3-trifluoromethyl-benzoyl)-guanidine], 185 nM; in that of `CS(=O)(=O)c1cc(C(=O)NC(=N)N)ccc1C1CCN(C(=O)c2ccc(F)cc2)CC1` [N-{4-[1-(4-Fluoro-benzoyl)-piperidin-4-yl]-3-methanesulfonyl-benzoyl}-guanidine], 18 nM.

In the case of `COCC(=O)N1CCC(c2ccc(C(=O)NC(=N)N)cc2S(C)(=O)=O)CC1` [N-{3-methanesulfonyl-4-[1-(2-methoxy-acetyl)-piperidin-4-yl]-benzoyl}-guanidine], the IC50 came to 24 nM.

In the case of `CC(C)C(=O)N1CCC(c2ccc(C(=O)NC(=N)N)cc2C(F)(F)F)CC1` [N-[4-(1-Isobutyryl-piperidin-4-yl)-3-trifluoromethyl-benzoyl]-guanidine], the IC50 was determined as 25 nM.

For `CC(=O)N1CCC(c2cc(C)c(C(=O)NC(=N)N)cc2S(C)(=O)=O)CC1` [N-[4-(1-Acetyl-piperidin-4-yl)-5-methanesulfonyl-2-methyl-benzoyl]-guanidine], the IC50 worked out at 12 nM.

In the case of `N#Cc1ccc(C(=O)N2CCC(c3ccc(C(=O)NC(=N)N)cc3C(F)(F)F)CC2)cn1` [N-{4-[1-(6-Cyano-pyridine-3-carbonyl)-piperidin-4-yl]-3-trifluoromethyl-benzoyl}-guanidine], the IC50 came out at 39 nM. Next, `N=C(N)NC(=O)c1ccc(C2CCN(C(=O)c3ccc(C(F)(F)F)cc3F)CC2)c(C(F)(F)F)c1` [N-{4-[1-(2-Fluoro-4-trifluoromethyl-benzoyl)-piperidin-4-yl]-3-trifluoromethyl-benzoyl}-guanidine]: 305 nM; `Cc1cc(C2CCN(C(=O)c3ccncc3)CC2)c(C(F)(F)F)cc1C(=O)NC(=N)N` [N-{2-Methyl-4-[1-(pyridine-4-carbonyl)-piperidin-4-yl]-5-trifluoromethyl-benzoyl}-guanidine]: 7 nM; `Cc1cc(C2CCN(C(=O)c3ccc4[nH]ccc4c3)CC2)c(C(F)(F)F)cc1C(=O)NC(=N)N` [N-{4-[1-(1H-Indole-5-carbonyl)-piperidin-4-yl]-2-methyl-5-trifluoromethyl-benzoyl}-guanidine]: 47 nM. Next, `COc1cc(C2CCN(C(C)=O)CC2)c(C(F)(F)F)cc1C(=O)NC(=N)N` [N-[4-(1-Acetyl-piperidin-4-yl)-2-methoxy-5-trifluoromethyl-benzoyl]-guanidine]: 14 nM; `COc1cccc(-c2ccc(C(=O)N3CCC(c4ccc(C(=O)NC(=N)N)cc4C(F)(F)F)CC3)cn2)c1` [N-(4-{1-[6-(3-Methoxy-phenyl)-pyridine-3-carbonyl]-piperidin-4-yl}-3-trifluoromethyl-benzoyl)-guanidine]: 250 nM; `N=C(N)NC(=O)c1ccc(C2CCN(C(=O)C(N)CC(N)=O)CC2)c(C(F)(F)F)c1` (stereo not shown) [3-Amino-4-[4-(4-guanidinocarbonyl-2-trifluoromethyl-phenyl)-piperidin-1-yl]-4-oxo-butyramide]: 15 nM. Next, `Cc1cc(C2CCN(C(=O)c3cc4ccccc4[nH]3)CC2)c(C(F)(F)F)cc1C(=O)NC(=N)N` [N-{4-[1-(1H-Indole-2-carbonyl)-piperidin-4-yl]-2-methyl-5-trifluoromethyl-benzoyl}-guanidine]: 290 nM; `N=C(N)NC(=O)c1ccc(C2CCN(C(=O)c3ccncn3)CC2)c(C(F)(F)F)c1` [N-{4-[1-(Pyrimidine-4-carbonyl)-piperidin-4-yl]-3-trifluoromethyl-benzoyl}-guanidine]: 19 nM; `COc1cc(C2CCN(C(=O)c3ccc4c(c3)CCC(=O)N4)CC2)c(C(F)(F)F)cc1C(=O)NC(=N)N` [N-{2-Methoxy-4-[1-(2-oxo-1,2,3,4-tetrahydro-quinoline-6-carbonyl)-piperidin-4-yl]-5-trifluoromethyl-benzoyl}-guanidine]: 4 nM.

One may read the IC50 as the midpoint of a concentration-inhibition curve.
